Reference: article PMC4700268 (Frontiers in Pharmacology, 2016)
Like-named read-outs stand apart in the source and are kept apart here.

B1: hCNT3 (Homo sapiens) (protein)
chain: MELRSTAAPRAEGYSNVGFQNEENFLENENTSGNNSIRSRAVQSREHTNTKQDEEQVTVEQDSPRNREHMEDDDEEMQQKGCLERRYDTVCGFCRKHKTTLRHIIWGILLAGYLVMVISACVLNFHRALPLFVITVAAIFFVVWDHLMAKYEHRIDEMLSPGRRLLNSHWFWLKWVIWSSLVLAVIFWLAFDTAKLGQQQLVSFGGLIMYIVLLFLFSKYPTRVYWRPVLWGIGLQFLLGLLILRTDPGFIAFDWLGRQVQTFLEYTDAGASFVFGEKYKDHFFAFKVLPIVVFFSTVMSMLYYLGLMQWIIRKVGWIMLVTTGSSPIESVVASGNIFVGQTESPLLVRPYLPYITKSELHAIMTAGFSTIAGSVLGAYISFGVPSSHLLTASVMSAPASLAAAKLFWPETEKPKITLKNAMKMESGDSGNLLEAATQGASSSISLVANIAVNLIAFLALLSFMNSALSWFGNMFDYPQLSFELICSYIFMPFSFMMGVEWQDSFMVARLIGYKTFFNEFVAYEHLSKWIHLRKEGGPKFVNGVQQYISIRSEIIATYALCGFANIGSLGIVIGGLTSMAPSRKRDIASGAVRALIAGTVACFMTACIAGILSSTPVDINCHHVLENAFNSTFPGNTTKVIACCQSLLSSTVAKGPGEVIPGGNHSLYSLKGCCTLLNPSTFNCNGISNTF
B2: hOAT1 (Homo sapiens) (protein)
chain: MAFNDLLQQVGGVGRFQQIQVTLVVLPLLLMASHNTLQNFTAAIPTHHCRPPADANLSKNGGLEVWLPRDRQGQPESCLRFTSPQWGLPFLNGTEANGTGATEPCTDGWIYDNSTFPSTIVTEWDLVCSHRALRQLAQSLYMVGVLLGAMVFGYLADRLGRRKVLILNYLQTAVSGTCAAFAPNFPIYCAFRLLSGMALAGISLNCMTLNVEWMPIHTRACVGTLIGYVYSLGQFLLAGVAYAVPHWRHLQLLVSAPFFAFFIYSWFFIESARWHSSSGRLDLTLRALQRVARINGKREEGAKLSMEVLRASLQKELTMGKGQASAMELLRCPTLRHLFLCLSMLWFATSFAYYGLVMDLQGFGVSIYLIQVIFGAVDLPAKLVGFLVINSLGRRPAQMAALLLAGICILLNGVIPQDQSIVRTSLAVLGKGCLAASFNCIFLYTGELYPTMIRQTGMGMGSTMARVGSIVSPLVSMTAELYPSMPLFIYGAVPVAASAVTVLLPETLGQPLPDTVQDLESRWAPTQKEAGIYPRKGKQTRQQQEHQKYMVPLQASAQEKNGL
notes: host or cells: HeLa cells, transient transfection
B3: hCNT2 (Homo sapiens) (protein)
chain: MEKASGRQSIALSTVETGTVNPGLELMEKEVEPEGSKRTDAQGHSLGDGLGPSTYQRRSRWPFSKARSFCKTHASLFKKILLGLLCLAYAAYLLAACILNFQRALALFVITCLVIFVLVHSFLKKLLGKKLTRCLKPFENSRLRLWTKWVFAGVSLVGLILWLALDTAQRPEQLIPFAGICMFILILFACSKHHSAVSWRTVFSGLGLQFVFGILVIRTDLGYTVFQWLGEQVQIFLNYTVAGSSFVFGDTLVKDVFAFQALPIIIFFGCVVSILYYLGLVQWVVQKVAWFLQITMGTTATETLAVAGNIFVGMTEAPLLIRPYLGDMTLSEIHAVMTGGFATISGTVLGAFIAFGVDASSLISASVMAAPCALASSKLAYPEVEESKFKSEEGVKLPRGKERNVLEAASNGAVDAIGLATNVAANLIAFLAVLAFINAALSWLGELVDIQGLTFQVICSYLLRPMVFMMGVEWTDCPMVAEMVGIKFFINEFVAYQQLSQYKNKRLSGMEEWIEGEKQWISVRAEIITTFSLCGFANLSSIGITLGGLTSIVPHRKSDLSKVVVRALFTGACVSLISACMAGILYVPRGAEADCVSFPNTSFTNRTYETYMCCRGLFQSTSLNGTNPPSFSGPWEDKEFSAMALTNCCGFYNNTVCA

Assays:
[1] = test system: HeLa cells transiently transfected with hOAT1
Description: (§3) The Hela cells were plated in a 96-well plate and transfected with hOAT1 as described above. […] The controls were prepared simultaneously. After 24 h of incubation, the reagent from the kit CellTiter 96 AQueous One Solution Cell Proliferation Assay (CellTiter 96, PROMEGA, USA) was added. After 1.5 h of incubation at 37°C the absorbance was recorded at 490 nm.

[2] = ref Cundy, 1999; Kearney et al., 2005; Delahunty et al., 2006; cited from earlier work
[3] = molecular target: T1, hCNT2 (Homo sapiens, UniProt O43868); test: Inhibition of [3H]uridine uptake in hCNT2 transfected MDCK II cells; type: in vitro ADME; parameters: host or cells: MDCK II cells, transient transfection; conditions: 1 μM [3H]uridine, 0–1000 μM, 2 min, MDCK II
T1 sequence (O43868 1-658): B3 chain
Description: (§1) Inhibitory transport assays were carried out in 24-well plates as described previously ([Mandikova et al., 2013]). Transport assays in HeLa cells transiently transfected with the hOAT1 expression construct were performed 48 h after transfection. Transport assays in MDCK II cells transiently transfected with hOCT2, hCNT2 or hCNT3 were performed 24 h after transfection. The cultivation medium was removed and the cells were washed with transport solution and preincubated for 10 min at 37°C. The standard radiolabeled substrate or tested radioactive antiviral substance dissolved in transport solution was added to the cells and incubated for 2 min. [^3H]PAH (1 μM) was used as a prototypical substrate for OATs, [^3H]MPP^+ (1 μM) for OCTs and [^3H]uridine (1 μM) for CNTs. […] After the designated time period, the incubation was stopped by washing the cells twice with ice-cold solution containing 137 mM NaCl and 10 mM HEPES, pH 7.4. The cells were disintegrated with 0.1 mL of Triton X 0.5% in 100 mM NaOH for 1 h.
(§2) IC50 values were calculated using non-linear regression analysis using GraphPad Prism software (version 6).

[4] = molecular target: T2, hCNT3 (Homo sapiens, UniProt Q9HAS3); test: Inhibition of [3H]uridine uptake in hCNT3 transfected MDCK II cells; type: in vitro ADME; parameters: host or cells: MDCK II cells, transient transfection; conditions: 1 μM [3H]uridine, 0–1000 μM, 2 min, MDCK II
T2 sequence (Q9HAS3 1-691): B1 chain
Description: as §1, §2

[5] = molecular target: T3, hOAT1 (Homo sapiens, UniProt Q4U2R8); parameters: method as in Ho et al. (2000); conditions: ref Ho et al. (2000); read-out: Km in CHO cells stably expressing hOAT1; cited from earlier work
T3 sequence (Q4U2R8 1-563): B2 chain

[6] = test system: HeLa cells transiently transfected with hOAT1; test: MTS cell viability assay in hOAT1 transfected HeLa cells; conditions: 24 h, hOAT1 vs empty vector transfected HeLa cells
Description: as §3

[7] = substrate: C=C1[C@H](CO)[C@@H](O)C[C@@H]1n1cnc2c(=O)[nH]c(N)nc21; test: not read; conditions: 5 min, 37°C
[8] = substrate: C=C1[C@H](CO)[C@@H](O)C[C@@H]1n1cnc2c(=O)[nH]c(N)nc21; test: not read; type: in vitro ADME, human; conditions: other: HeLa cells transiently transfected with hOAT1, 5 min, 37°C

Molecule | Therapeutic plasma levels achieved in humans [2] | Inhibitory effect on hCNT2 [3] | Inhibitory effect on hCNT3 [4] | Effect of hOAT1 expression on cytotoxicity (cell viability) [6] | other results
C[C@H](Cn1cnc2c(N)ncnc21)OCP(=O)(O)O [tenofovir] | 0.5 µM | not observed | not observed |  | Effect of hOAT1 expression on cytotoxicity (cell viability) [1]: significantly enhanced the cytotoxic effect
Nc1ncnc2c1ncn2CCOCP(=O)(O)O [adefovir] | 0.1 µM | not observed | not observed | significantly enhanced the cytotoxic effect | Km [5]: 23.8 µM
Nc1ccn(C[C@@H](CO)OCP(=O)(O)O)c(=O)n1 [cidofovir] | 70 µM | not observed | not observed | significantly enhanced the cytotoxic effect | 
B1 |  |  |  |  | Km ([7]; other: hCNT3 transfected cells): 99.02 µM
B2 |  |  |  |  | Km [8]: 316.5 µM
B3 |  |  |  |  | Km ([7]; other: hCNT2 transfected cells): 1522.00 µM
